Assay results reported in article PMC5761851, “Application of a phenotypic drug discovery strategy to identify biological and chemical starting points for inhibition of TSLP production in lung epithelial cells” (PLoS ONE, 2018).

Tests used:
Experiment in all cases: kinase selectivity panel
Type in all cases: biochemical
Rsk2 = molecular target: T1, Rsk2 (Homo sapiens, UniProt P51812); conditions: read-out: percentage of control activity (POC), Rsk2
T1 construct: purchased Eurofins Pharma Discovery Services (KinaseProfiler; Cerep BioPrint panel)
How it was run: (§1)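 Tested at 10 μM in duplicate within a panel of 125 representative kinases. For selected activities, IC50 values were then determined from 9 concentrations, each run in duplicate.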

IKKβ = molecular target: T2, IKKβ (Homo sapiens, UniProt O14920); conditions: read-out: percentage of control activity (POC), IKKβ
T2 construct: purchased Eurofins Pharma Discovery Services (KinaseProfiler; Cerep BioPrint panel)
T2 sequence (O14920 1-756): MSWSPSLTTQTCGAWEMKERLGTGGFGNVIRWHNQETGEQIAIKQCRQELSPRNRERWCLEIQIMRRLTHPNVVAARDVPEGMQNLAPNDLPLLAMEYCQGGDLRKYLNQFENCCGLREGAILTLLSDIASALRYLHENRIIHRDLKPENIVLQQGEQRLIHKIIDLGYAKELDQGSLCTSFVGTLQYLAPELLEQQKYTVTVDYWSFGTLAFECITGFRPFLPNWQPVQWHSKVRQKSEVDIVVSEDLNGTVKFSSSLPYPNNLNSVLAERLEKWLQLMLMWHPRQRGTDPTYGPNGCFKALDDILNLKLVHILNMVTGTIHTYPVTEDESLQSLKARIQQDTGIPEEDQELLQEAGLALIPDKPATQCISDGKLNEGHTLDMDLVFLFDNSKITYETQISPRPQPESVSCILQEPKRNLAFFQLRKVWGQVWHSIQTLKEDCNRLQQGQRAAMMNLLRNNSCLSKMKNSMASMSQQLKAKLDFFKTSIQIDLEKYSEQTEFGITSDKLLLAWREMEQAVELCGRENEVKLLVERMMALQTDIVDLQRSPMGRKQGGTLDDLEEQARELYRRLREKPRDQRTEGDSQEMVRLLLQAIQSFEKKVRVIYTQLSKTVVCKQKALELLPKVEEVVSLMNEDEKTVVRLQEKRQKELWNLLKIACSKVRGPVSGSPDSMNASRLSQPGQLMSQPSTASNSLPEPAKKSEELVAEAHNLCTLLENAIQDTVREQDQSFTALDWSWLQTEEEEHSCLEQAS
How it was run: as §1

JAK1 = molecular target: T3, JAK1 (Homo sapiens, UniProt P23458); conditions: read-out: percentage of control activity (POC), JAK1
T3 construct: purchased Eurofins Pharma Discovery Services (KinaseProfiler; Cerep BioPrint panel)
How it was run: as §1

TBK1 = molecular target: T4, TBK1 (Homo sapiens, UniProt Q9UHD2); conditions: read-out: percentage of control activity (POC), TBK1
T4 construct: purchased Eurofins Pharma Discovery Services (KinaseProfiler; Cerep BioPrint panel)
T4 sequence (Q9UHD2 1-729): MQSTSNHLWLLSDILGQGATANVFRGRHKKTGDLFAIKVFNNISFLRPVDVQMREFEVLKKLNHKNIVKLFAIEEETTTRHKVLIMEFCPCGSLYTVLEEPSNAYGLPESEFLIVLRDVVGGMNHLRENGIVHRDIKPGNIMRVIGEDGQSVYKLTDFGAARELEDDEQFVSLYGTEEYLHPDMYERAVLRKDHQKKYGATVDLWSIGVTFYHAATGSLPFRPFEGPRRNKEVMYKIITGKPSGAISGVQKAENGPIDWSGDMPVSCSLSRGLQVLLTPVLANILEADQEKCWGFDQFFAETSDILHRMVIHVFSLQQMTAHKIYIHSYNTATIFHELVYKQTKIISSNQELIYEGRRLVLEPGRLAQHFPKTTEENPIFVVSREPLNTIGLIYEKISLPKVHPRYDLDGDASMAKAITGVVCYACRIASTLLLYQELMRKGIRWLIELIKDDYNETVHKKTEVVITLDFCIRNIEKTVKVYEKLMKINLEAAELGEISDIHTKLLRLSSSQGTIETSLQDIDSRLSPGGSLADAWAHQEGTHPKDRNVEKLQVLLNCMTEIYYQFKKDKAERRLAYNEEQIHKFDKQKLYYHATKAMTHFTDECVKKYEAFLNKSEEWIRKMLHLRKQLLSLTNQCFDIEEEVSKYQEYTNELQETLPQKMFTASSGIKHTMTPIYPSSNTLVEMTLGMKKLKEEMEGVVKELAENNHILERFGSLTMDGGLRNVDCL
How it was run: as §1

AMPKα1 = molecular target: T5, AMPKα1 (Homo sapiens, UniProt Q13131); conditions: read-out: percentage of control activity (POC), AMPKα1
T5 construct: purchased Eurofins Pharma Discovery Services (KinaseProfiler; Cerep BioPrint panel)
How it was run: as §1

IRAK4 = molecular target: T6, IRAK4 (Homo sapiens, UniProt Q9NWZ3); conditions: read-out: percentage of control activity (POC), IRAK4
T6 construct: purchased Eurofins Pharma Discovery Services (KinaseProfiler; Cerep BioPrint panel)
T6 sequence (Q9NWZ3 1-460): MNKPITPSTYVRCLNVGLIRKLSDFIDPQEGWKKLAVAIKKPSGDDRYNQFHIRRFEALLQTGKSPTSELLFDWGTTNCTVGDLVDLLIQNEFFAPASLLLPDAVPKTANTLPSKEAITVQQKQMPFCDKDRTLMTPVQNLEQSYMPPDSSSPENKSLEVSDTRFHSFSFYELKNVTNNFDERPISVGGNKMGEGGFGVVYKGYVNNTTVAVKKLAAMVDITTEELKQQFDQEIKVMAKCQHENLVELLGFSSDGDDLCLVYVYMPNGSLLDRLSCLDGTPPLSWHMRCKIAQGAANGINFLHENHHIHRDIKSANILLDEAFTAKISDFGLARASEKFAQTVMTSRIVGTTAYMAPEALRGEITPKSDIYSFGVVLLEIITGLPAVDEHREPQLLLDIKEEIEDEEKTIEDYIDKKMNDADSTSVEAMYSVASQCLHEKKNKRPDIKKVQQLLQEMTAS
How it was run: as §1

Ret = molecular target: T7, Ret (Homo sapiens, UniProt P07949); conditions: read-out: percentage of control activity (POC), Ret
T7 construct: purchased Eurofins Pharma Discovery Services (KinaseProfiler; Cerep BioPrint panel)
How it was run: as §1

FAK = molecular target: T8, FAK (Homo sapiens, UniProt Q05397); conditions: read-out: percentage of control activity (POC), FAK
T8 construct: purchased Eurofins Pharma Discovery Services (KinaseProfiler; Cerep BioPrint panel)
How it was run: as §1

Rsk1 = molecular target: T9, Rsk1 (Homo sapiens, UniProt Q15418); conditions: read-out: percentage of control activity (POC), Rsk1
T9 construct: purchased Eurofins Pharma Discovery Services (KinaseProfiler; Cerep BioPrint panel)
How it was run: as §1

MEK1 = molecular target: T10, MEK1 (Homo sapiens, UniProt Q02750); conditions: read-out: percentage of control activity (POC), MEK1
T10 construct: purchased Eurofins Pharma Discovery Services (KinaseProfiler; Cerep BioPrint panel)
How it was run: as §1

Hck = molecular target: T11, Hck (Homo sapiens, UniProt P08631); conditions: for remaining activity at 10 µM: read-out: percentage of control activity (POC), Hck
T11 construct: Eurofins Pharma Discovery Services (contract assay service)
How it was run: as §1

JAK2 = molecular target: T12, JAK2 (Homo sapiens, UniProt O60674); conditions: read-out: percentage of control activity (POC), JAK2
T12 construct: purchased Eurofins Pharma Discovery Services (KinaseProfiler; Cerep BioPrint panel)
How it was run: as §1

T3 sequence (P23458 whole entry): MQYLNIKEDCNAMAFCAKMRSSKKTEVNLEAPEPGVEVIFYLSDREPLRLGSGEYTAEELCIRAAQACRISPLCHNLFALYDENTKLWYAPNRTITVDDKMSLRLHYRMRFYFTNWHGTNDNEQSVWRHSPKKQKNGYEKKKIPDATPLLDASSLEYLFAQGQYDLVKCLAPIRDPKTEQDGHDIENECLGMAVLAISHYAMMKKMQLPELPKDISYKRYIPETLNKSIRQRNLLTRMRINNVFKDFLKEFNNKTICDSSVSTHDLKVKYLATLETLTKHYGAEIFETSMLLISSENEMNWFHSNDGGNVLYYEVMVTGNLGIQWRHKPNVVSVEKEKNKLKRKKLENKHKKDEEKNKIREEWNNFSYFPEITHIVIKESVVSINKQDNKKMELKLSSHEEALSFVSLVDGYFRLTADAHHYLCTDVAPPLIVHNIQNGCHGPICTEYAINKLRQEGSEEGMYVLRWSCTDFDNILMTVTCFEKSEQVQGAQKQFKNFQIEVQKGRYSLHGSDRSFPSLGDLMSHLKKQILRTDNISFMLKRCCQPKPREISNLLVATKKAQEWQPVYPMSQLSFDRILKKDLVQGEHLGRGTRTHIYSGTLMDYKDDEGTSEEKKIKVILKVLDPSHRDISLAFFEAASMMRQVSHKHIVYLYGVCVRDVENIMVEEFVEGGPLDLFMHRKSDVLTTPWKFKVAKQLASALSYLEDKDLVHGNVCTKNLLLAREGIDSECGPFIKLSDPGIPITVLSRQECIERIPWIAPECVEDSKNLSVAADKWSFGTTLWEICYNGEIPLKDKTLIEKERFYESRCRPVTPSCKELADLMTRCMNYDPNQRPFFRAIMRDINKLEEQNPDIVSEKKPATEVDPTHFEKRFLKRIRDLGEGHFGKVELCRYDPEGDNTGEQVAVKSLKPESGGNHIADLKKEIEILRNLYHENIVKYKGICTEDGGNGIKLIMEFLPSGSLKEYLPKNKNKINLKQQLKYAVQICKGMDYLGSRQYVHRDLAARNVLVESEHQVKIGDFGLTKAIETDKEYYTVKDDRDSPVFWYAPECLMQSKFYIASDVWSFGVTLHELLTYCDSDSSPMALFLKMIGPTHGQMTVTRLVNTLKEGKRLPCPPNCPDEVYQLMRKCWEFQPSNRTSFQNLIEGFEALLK
T1 sequence (P51812 whole entry): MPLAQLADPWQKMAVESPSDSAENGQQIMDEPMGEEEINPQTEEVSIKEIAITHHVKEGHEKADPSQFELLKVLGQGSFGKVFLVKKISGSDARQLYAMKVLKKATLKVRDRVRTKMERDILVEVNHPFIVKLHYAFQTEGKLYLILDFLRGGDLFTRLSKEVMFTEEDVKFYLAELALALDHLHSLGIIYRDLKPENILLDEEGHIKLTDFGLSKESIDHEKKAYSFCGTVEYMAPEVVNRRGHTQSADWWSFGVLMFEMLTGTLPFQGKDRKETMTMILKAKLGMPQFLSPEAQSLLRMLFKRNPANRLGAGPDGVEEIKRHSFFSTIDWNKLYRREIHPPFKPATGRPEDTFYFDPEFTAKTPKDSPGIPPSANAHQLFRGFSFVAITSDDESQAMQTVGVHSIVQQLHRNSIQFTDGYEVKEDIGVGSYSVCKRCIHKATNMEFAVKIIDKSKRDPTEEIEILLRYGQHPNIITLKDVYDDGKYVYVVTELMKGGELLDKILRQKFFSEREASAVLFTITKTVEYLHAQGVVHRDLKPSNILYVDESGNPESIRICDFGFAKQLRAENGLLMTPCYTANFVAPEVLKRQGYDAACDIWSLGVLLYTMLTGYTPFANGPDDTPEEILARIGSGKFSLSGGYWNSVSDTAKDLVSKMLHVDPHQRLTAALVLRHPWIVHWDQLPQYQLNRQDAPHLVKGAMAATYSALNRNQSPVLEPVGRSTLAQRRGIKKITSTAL
T10 sequence (Q02750 whole entry): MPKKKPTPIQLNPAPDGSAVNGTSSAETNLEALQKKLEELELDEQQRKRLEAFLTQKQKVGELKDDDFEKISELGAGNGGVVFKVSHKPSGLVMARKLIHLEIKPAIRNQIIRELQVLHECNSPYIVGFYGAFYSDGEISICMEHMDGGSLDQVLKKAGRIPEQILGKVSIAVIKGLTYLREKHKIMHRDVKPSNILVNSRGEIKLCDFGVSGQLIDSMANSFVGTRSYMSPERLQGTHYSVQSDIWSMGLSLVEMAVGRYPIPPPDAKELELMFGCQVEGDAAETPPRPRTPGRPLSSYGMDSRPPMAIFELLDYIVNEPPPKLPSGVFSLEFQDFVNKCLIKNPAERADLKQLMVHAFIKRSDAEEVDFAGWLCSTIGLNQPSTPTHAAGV
T7 sequence (P07949 29-1114): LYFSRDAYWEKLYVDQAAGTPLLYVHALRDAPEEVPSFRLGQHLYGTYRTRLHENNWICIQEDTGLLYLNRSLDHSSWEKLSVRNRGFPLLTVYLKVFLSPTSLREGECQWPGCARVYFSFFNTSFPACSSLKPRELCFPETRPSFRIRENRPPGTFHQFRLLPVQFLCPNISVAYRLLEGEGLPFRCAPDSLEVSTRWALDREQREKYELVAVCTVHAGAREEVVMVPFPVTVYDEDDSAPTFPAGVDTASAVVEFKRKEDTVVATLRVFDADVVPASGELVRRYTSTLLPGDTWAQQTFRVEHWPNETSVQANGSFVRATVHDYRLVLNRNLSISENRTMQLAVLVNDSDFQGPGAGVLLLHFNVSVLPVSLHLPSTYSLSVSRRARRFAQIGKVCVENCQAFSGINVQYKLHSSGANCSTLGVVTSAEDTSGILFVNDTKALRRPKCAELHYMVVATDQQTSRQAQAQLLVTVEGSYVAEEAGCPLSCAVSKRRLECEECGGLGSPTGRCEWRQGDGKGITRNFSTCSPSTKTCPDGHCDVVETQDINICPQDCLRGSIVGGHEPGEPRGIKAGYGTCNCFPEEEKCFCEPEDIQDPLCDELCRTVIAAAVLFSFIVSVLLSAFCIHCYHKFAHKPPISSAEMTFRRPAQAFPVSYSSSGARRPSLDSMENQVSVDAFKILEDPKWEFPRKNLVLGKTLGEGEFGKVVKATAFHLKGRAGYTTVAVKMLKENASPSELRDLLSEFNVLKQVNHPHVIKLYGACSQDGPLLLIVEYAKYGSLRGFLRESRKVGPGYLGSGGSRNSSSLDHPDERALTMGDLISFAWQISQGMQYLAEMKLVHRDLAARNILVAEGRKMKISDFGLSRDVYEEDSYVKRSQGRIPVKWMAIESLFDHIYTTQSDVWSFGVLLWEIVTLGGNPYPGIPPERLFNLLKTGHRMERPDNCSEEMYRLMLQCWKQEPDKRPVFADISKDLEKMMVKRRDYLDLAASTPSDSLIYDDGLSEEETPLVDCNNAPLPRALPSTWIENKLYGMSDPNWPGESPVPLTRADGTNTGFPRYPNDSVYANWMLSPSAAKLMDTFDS
T12 sequence (O60674 whole entry): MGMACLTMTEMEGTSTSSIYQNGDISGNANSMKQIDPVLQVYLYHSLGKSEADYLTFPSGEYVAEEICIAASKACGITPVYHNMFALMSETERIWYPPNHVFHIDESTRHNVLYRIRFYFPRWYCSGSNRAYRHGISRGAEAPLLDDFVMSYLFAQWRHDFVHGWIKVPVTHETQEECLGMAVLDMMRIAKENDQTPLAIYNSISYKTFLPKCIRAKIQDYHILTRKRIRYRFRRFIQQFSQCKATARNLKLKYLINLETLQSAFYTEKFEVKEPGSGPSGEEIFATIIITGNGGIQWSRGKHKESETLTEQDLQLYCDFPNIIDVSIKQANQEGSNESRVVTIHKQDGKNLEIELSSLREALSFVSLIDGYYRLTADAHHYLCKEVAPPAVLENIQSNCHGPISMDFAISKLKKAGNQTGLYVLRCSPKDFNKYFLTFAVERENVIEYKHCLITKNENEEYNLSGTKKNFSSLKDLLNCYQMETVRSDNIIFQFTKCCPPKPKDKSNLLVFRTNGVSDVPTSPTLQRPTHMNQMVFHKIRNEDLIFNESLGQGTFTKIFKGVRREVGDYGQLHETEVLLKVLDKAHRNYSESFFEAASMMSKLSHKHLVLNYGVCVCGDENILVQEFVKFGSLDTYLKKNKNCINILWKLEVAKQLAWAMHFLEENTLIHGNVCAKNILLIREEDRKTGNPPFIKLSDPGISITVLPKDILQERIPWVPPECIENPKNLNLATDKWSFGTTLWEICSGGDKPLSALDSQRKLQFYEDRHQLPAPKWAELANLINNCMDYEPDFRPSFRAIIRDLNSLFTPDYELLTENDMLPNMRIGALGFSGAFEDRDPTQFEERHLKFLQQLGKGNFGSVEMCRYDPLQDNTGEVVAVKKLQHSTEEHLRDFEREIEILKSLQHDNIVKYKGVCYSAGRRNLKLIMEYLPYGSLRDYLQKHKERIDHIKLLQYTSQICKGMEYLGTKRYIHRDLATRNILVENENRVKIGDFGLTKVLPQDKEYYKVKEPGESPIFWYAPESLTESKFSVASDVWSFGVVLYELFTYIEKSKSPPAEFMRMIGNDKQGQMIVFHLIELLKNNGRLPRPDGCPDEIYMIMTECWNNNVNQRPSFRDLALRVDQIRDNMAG
T11 sequence (P08631 whole entry, species assumed): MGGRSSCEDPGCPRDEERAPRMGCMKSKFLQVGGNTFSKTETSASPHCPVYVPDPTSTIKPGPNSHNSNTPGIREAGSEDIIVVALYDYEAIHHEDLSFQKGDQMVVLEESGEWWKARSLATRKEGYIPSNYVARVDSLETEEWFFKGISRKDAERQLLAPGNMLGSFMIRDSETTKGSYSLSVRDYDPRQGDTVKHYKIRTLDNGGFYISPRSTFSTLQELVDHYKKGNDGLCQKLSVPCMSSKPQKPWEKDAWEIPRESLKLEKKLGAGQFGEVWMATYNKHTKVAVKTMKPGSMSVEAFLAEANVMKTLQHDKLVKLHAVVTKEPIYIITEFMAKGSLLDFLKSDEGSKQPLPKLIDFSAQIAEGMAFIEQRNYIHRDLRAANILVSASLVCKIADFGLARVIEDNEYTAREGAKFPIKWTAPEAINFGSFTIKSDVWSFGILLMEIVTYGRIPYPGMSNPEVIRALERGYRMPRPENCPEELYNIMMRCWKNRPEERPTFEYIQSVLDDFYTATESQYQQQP

Row | SMILES | remaining activity at 10 µM (Rsk2) | remaining activity at 10 µM (IKKβ) | remaining activity at 10 µM (JAK1) | remaining activity at 10 µM (TBK1) | remaining activity at 10 µM (AMPKα1) | remaining activity at 10 µM (IRAK4) | remaining activity at 10 µM (Ret) | remaining activity at 10 µM (FAK) | remaining activity at 10 µM (Rsk1) | remaining activity at 10 µM (MEK1) | remaining activity at 10 µM (Hck; 10 μM) | remaining activity at 10 µM (JAK2) | inhibition at 10 µM (Hck; 10 μM) | IC50 (Hck; biochemical dose response, duplicate, read-out: Inhibition of indicated activity (IC50, μM): Hck)
1 | CC(C)(C)N1CCC(c2cc(-c3ccc(F)cc3Cl)c3cc[n+]([O-])c(-c4c(Cl)cccc4Cl)c3n2)CC1 [compound 2] | 101% | 102% | 91% | 108% | 105% | 95% | 100% | 111% | 104% | 112% | 84% | 105% |  | 
2 | Cn1cc(-c2cccc(-c3nc(C(=O)NC4C5CC6CC4CC(O)(C6)C5)c(N)nc3N)c2)cn1 (centres unmarked) [compound 4] | 88% | 95% | 86% | 90% | 85% | 82% | 63% | 99% | 87% | 97% | 47% | 88% | 53% | 3.58 µM
3 | CS(=O)(=O)N1CCN(c2ccc(Nc3ncc(C(N)=O)c(NC4CC4)n3)cc2)CC1 [compound 5] | -2% | 8% | -2% | -1% | -1% | 13% | -1% | 1% | 1% | 13% | 7% | -3% |  | 

More lines, main results first:

Row | remaining activity at 10 µM (Rsk2) | remaining activity at 10 µM (IKKβ) | remaining activity at 10 µM (JAK1) | remaining activity at 10 µM (TBK1) | remaining activity at 10 µM (AMPKα1) | remaining activity at 10 µM (IRAK4) | remaining activity at 10 µM (Ret) | remaining activity at 10 µM (FAK) | remaining activity at 10 µM (Rsk1) | remaining activity at 10 µM (MEK1) | remaining activity at 10 µM (Hck; 10 μM) | remaining activity at 10 µM (JAK2) | SMILES | inhibition at 10 µM (Hck; 10 μM) | IC50 (Hck; biochemical dose response, duplicate, read-out: Inhibition of indicated activity (IC50, μM): Hck)
4 | 103% | 107% | 93% | 92% | 98% | 92% | 89% | 99% | 100% | 94% | 87% | 108% | Cc1ccc(C(=O)NCC2CC2)cc1-c1ccc2c(c1)NC(=O)C21CCCC1 [compound 3] |  | 
5 | 112% | 127% | 101% | 103% | 114% | 118% | 71% | 104% | 132% | 107% | 84% | 104% | COc1c(NC(=O)c2ccc(C)c(-c3nnc4c(NCC(C)(C)C)nccn34)c2)cc(C(C)(C)C)cc1NS(C)(=O)=O [compound 7, reference compound] |  | 
